Data published in patent US7462598B2, “Antimicrobial theta defensins, analogs thereof, and methods of use” (priority 2002, dated 2008).
Bridge positions count the residues as written; N and C are the ends. Peptide text beside a SMILES is read from it.

Tests used:
[1] = tested on: S. aureus 502a; assay: Cell-suspension microbicidal assay (MMC); type: cell-based, Staphylococcus aureus; conditions: lowest concentration that reduced cell viability by 99.9%; 10 mM PIPES, 5 mM glucose, pH 7.4; 2 h 37° C.
Description: (§1) To test microbicidal activities, the activities of each peptide against S. aureus 502a, E. coli ML35, and C. albicans 16820 were assessed essentially as described in Example I with modifications to allow for simultaneous analysis of all twenty peptides. Briefly, two-fold serial dilutions of each peptide (in 0.01% acetic acid 0.062-8.0 μg/ml final concentrations) were mixed with 10 mM PIPES, pH 7.4, containing 5 mM glucose in sterile polystyrene 96-well plates (Corning, N.Y.). Aliquots of log-phase bacteria or yeast were added to a 2×10^6 CFU/ml final density as determined by A620. After 2 h incubation at 37° C., 15 μl of the incubation mixture was removed and serially diluted ten-fold from 1:10 to 1:10^6 in trypticase soy broth (bacteria) or Sabaraud dextrose broth (C. albicans). The diluted cell suspensions were grown 24-48 h at 37° C. until cell pellets were visible. Microbicidal activity was determined as absence of growth and was correlated to CFU/ml in control experiments where activity was determined in parallel by colony counting (see Example I). Absence of growth at the 1:10^3 dilution is equivalent to a 3-log reduction in microbial viability.
(§2) The microbicidal activities of each peptide against E. coli ML35, S. aureus 502a, and C. albicans 16820 were determined with cell-suspension microbicidal assays in 96-well plates (see Example II). Briefly, log-phase cells (2×10^6 CFU/ml final) were incubated with increasing concentrations of peptides (0-8 μg/ml final) in 50 μl of 10 mM PIPES, 5 mM glucose, pH 7.4, for 2 h at 37° C. Incubation mixtures were diluted 1:10 to 1:10^6 with trypticase-soy broth (bacteria) or Sabaraud dextrose broth (fungi) and incubated at 37° C. for 24-48 h until cell pellets were visible. Microbicidal activities (confirmed in control experiments as described in Example II) were determined as the absence of a cell pellet in the various dilutions. Peptide concentrations that caused ≧99.9% killing (absence of a cell pellet at 1:10^3 dilution) were taken as the minimum microbicidal concentrations (MMC).

[2] = tested on: C. albicans 16820; assay: Cell-suspension microbicidal assay (MMC); type: cell-based, Candida albicans; conditions: lowest concentration that reduced cell viability by 99.9%; 10 mM PIPES, 5 mM glucose, pH 7.4; 2 h 37° C.
Description: as §1, §2

[3] = tested on: S. aureus 502a, E. coli ML35, and C. albicans 16820; assay: Cell-suspension microbicidal assay, statements across the test organisms (lowest MMC, overall ranges); type: cell-based; conditions: peptide concentration that kill 99.9% of either S. aureus, E. coli, or C. albicans; lowest MMC value
Description: as §1, §2
(§3) A selectivity index (SI=H/M) was calculated as a ratio of a peptide concentration (μg/ml) that causes 3% hemolysis (H) obtained from a dose-dependent hemolysis plot over 0.3 to 3 μg/ml of each peptide in PBS and the lowest MMC value (M) for any of the three test microorganisms (see Example II; Table 2).

[4] = tested on: S. aureus 502a; type: cell-based, Staphylococcus aureus; conditions: 10% normal human serum; FIG. 7
Description: Dose-dependent staphylocidal activity of each peptide was determined in assays containing 10% normal human serum. Percentages of killing are relative to activities of peptide-containing incubations in which serum was omitted.
To determine the effects of serum, salt, calcium chloride and magnesium chloride on microbicidal activities, peptide activities were determined in assays containing varying ionic strength, divalent cations, and serum. The effect of serum on staphylocidal activity of each peptide was determined by incubating 1×10^6 CFU/ml of S. aureus 502a with increasing peptide concentrations (0.5-4 μg/ml) in 10 mM PIPES, pH 7.4, containing 10% normal human serum for 2 h at 37° C. The effect of sodium chloride on staphylocidal activities was assessed with 5 μg/ml of each peptide in 10 mM PIPES, pH 7.4, containing varying concentrations of sodium chloride (0-160 mM). Effects of divalent cations, CaCl2, or MgCl2 (0-5.6 mM) were assessed in microbicidal assays against E. coli ML35. Bactericidal activities were determined by colony counting (see Example II), and microbicidal potencies were expressed as percent killing as follows:
[formula] where A=surviving bacteria (CFU/ml) after initial incubation with each peptide in buffer containing serum, salt, or divalent cations and Ao=bacterial CFU/ml in the “no-peptide” controls.

[5] = tested on: E. coli ML35; assay: Membrane permeabilization assay (ONPG hydrolysis); type: cell-based, Escherichia coli; conditions: rates at 1 μg/ml concentration of each peptide
Description: For the membrane permeabilization assay, the permeabilization of bacterial cytoplasmic membranes was determined by measuring hydrolysis of o-nitrophenyl-β-D-galactcpyranoside (ONPG) in E. coli ML35 (Sitaram et al., FEBS Lett. 303:265-268 (1992); Lehrer et al.,. J. Immunol. Methods 108:153-158 (1988)). Peptides dissolved in 5 μl of 0.01% acetic acid were two-fold serially diluted with 10 mM PIPES, pH 7.4, containing 3 mM ONPG, to final peptide concentrations of 0-8.0 μg/ml. Log-phase bacteria, prepared in PIPES buffer as described for the microbicidal assay (see Example I), were added to 1×10^6 CFU/ml final density in a final volume of 90 μl. ONPG hydrolysis was measured at 405 nm for 60 min using a SpectraMAX 190 plate reader and SOFTmaxPRO 3.1 (Molecular Devices Corp., CA). […]

[6] = tested on: E. coli ML35; assay: Cell-suspension microbicidal assay (MMC); type: cell-based, Escherichia coli; conditions: lowest concentration that reduced cell viability by 99.9%; 10 mM PIPES, 5 mM glucose, pH 7.4; 2 h 37° C.
Description: as §1, §2

[7] = tested on: human erythrocytes; assay: Hemolysis assay; type: cell-based; conditions: peptide concentration that causes 3% hemolysis, calculated from dose-dependent hemolysis plot over 0.3-3 μg/ml in PBS
Description: For the hemolysis assay, the hemolytic activity of each peptide was determined by the method of Tam et al. (Tam et al., Eur. J. Biochem. 267:3289-3300 (2000)). Blood was obtained from a healthy donor in accordance to a protocol approved by the Institutional Review Board. Normal human serum was prepared from the same individual and stored at −20° C. Red blood cells (RBC) were prepared from blood collected in EDTA. RBC were harvested at 234×g for 10 min, 22° C., washed four times with 10 mM sodium phosphate, 150 mM NaCl, pH 7.4 (PBS), containing 4 mM EDTA and resuspended in PBS without EDTA. Peptides dissolved in 10 μl 0.01% HOAc were diluted with PBS to final concentrations of 0.3-100 μg/ml. RBC were added to a 2% final density in 100 μl. Incubation mixtures were also prepared with 10% serum. After 1 h incubation at 37° C., the cell suspensions were centrifuged at 234×g for 10 min, 22° C. Fifty-μl samples of the supernatants were removed, and the absorbance at 405 nm (A) was measured. Hemolytic activity of each peptide was calculated relative to lysis by 1% NP-40 using the following formula:
as §3

[8] = tested on: white blood cells; assay: Cytokine-antibody array of supernatants of white blood cells (ex vivo LPS model); type: cell-based; conditions: 18 h, relative to control supernatants
Description: The anti-inflammatory properties of RTD-1 were evaluated by determining the relative levels of cytokines produced by stimulated white blood cells. Blood was obtained from healthy donors in accordance with institutional guidelines. Serum was prepared from the same donor following coagulation and high-speed centrifugation (12,000-15,000 ×g). White blood cells, (WBC) were prepared from EDTA anti-coagulated blood using an established protocol. WBC were suspended in RPMI 1640 (Gibco; Invitrogen, Carlsbad Calif.) containing 10% FBS and 1% autologous serum. Aliquots containing 2×10^6 cells were added to each well of a sterile 12-well plate, and cells were allowed to incubate for 18 h at 37° C. in a humidified incubator with 5% carbon dioxide. […] Cell-free supernatants were collected by centrifugation at 12,000×g and incubated with cytokine-antibody arrays per the manufacturer's protocol (RayBiotech; Norcross Ga.). The cytokines on each array were visualized with a chemi-luminescent kit (Pierce; Rockford Ill.) and enumerated by spot density analysis with ChemiImager 5.5 (Alpha Innotech; San Leandro Calif.).

[9] = LPS (100 ng/ml) + RTD-1 (100 ng/ml)

Structure (SMILES): CC(C)C[C@H](NC(=O)[C@H](CCCNC(=N)N)NC(=O)CNC(=O)CNC(=O)[C@@H](N)CCCNC(=N)N)C(=O)N[C@H]1CSSC[C@@H](C(=O)N[C@H](C(=O)NCC(=O)N[C@@H](CCCNC(=N)N)C(N)=O)C(C)C)NC(=O)[C@H](C(C)C)NC(=O)[C@@H]2CSSC[C@H](NC(=O)[C@H](Cc3ccc(O)cc3)NC1=O)C(=O)N[C@@H](CCCNC(=N)N)C(=O)N[C@@H](CCCNC(=N)N)C(=O)N[C@@H](CCCNC(=N)N)C(=O)N[C@@H](Cc1ccccc1)C(=O)N2 [PG-1, reference compound]
- MMC, S. aureus [1]: 0.4 µg/mL
- MMC, C. albicans [2]: 0.8 µg/mL
- M [3]: 0.38 µg/mL
- staphylocidal activity in assay containing serum (in words) [4]: unaffected
- ONPG hydrolysis [5]: 11.3 (A405/sec) · 10^−5

Structure (SMILES): CC[C@H](C)[C@@H]1NC(=O)[C@@H]2CSSC[C@H](NC(=O)[C@H](CCCNC(=N)N)NC(=O)[C@@H]3CSSC[C@H](NC1=O)C(=O)N[C@@H]([C@@H](C)O)C(=O)N[C@@H](CCCNC(=N)N)C(=O)NCC(=O)N[C@@H](Cc1ccccc1)C(=O)N3)C(=O)N[C@@H](CC(C)C)C(=O)N[C@H]1CSSC[C@H](NC(=O)[C@H](C(C)C)NC(=O)CNC(=O)[C@H](CCCNC(=N)N)NC(=O)[C@H](CCCNC(=N)N)NC1=O)C(=O)N[C@@H](CCCNC(=N)N)C(=O)N2 [RTD-1] (cyclo(GFCRCLCRRGVCRCICTR); disulfide 3-16, 5-14, 7-12)
- MMC, S. aureus [1]: 1.0 µg/mL
- MMC, E. coli [6]: 2.0 µg/mL
- MMC, C. albicans [2]: 1.0 µg/mL
- M [3]: 1 µg/mL
- ONPG hydrolysis [5]: 9.0 (A405/sec) · 10^−5
- H [7]: 5.5 µg/mL
- ENA-78 fold increase [8, 9]: 10 fold
- GCSF fold increase [8, 9]: 1 fold
- GM-CSF fold increase [8, 9]: 1 fold
- GRO fold increase [8, 9]: 19 fold
- IFN-γ fold increase [8, 9]: 60 fold
- IL-1β fold increase [8, 9]: 118 fold
- IL-2 fold increase [8, 9]: 1 fold
- IL-5 fold increase [8, 9]: 118 fold
- IL-6 fold increase [8, 9]: 2 fold
- IL-7 fold increase [8, 9]: 1 fold
- IL-10 fold increase [8, 9]: 2 fold
- MCP-2 fold increase [8, 9]: 4 fold
- MCSF fold increase [8, 9]: 1 fold
- MDC fold increase [8, 9]: 4 fold
- MIP-1-δ fold increase [8, 9]: 1 fold
- RANTES fold increase [8, 9]: 237 fold
- SCF fold increase [8, 9]: 1 fold
- SDF-1 fold increase [8, 9]: 178 fold
- TARC fold increase [8, 9]: 60 fold
- TGF-β1 fold increase [8, 9]: 1 fold
- TNF-α fold increase [8, 9]: 1 fold
- ENA-78 fold increase ([8]; stimulus alone, 100 ng/ml): 1 fold
- GCSF fold increase ([8]; stimulus alone, 100 ng/ml): 1 fold
- GM-CSF fold increase ([8]; stimulus alone, 100 ng/ml): 1 fold
- GRO fold increase ([8]; stimulus alone, 100 ng/ml): 4 fold
- IFN-γ fold increase ([8]; stimulus alone, 100 ng/ml): 1 fold
- IL-1β fold increase ([8]; stimulus alone, 100 ng/ml): 178 fold
- IL-2 fold increase ([8]; stimulus alone, 100 ng/ml): 1 fold
- IL-5 fold increase ([8]; stimulus alone, 100 ng/ml): 60 fold
- IL-6 fold increase ([8]; stimulus alone, 100 ng/ml): 2 fold
- IL-7 fold increase ([8]; stimulus alone, 100 ng/ml): 1 fold
- IL-10 fold increase ([8]; stimulus alone, 100 ng/ml): 1 fold
- MCP-2 fold increase ([8]; stimulus alone, 100 ng/ml): 2 fold
- MCSF fold increase ([8]; stimulus alone, 100 ng/ml): 60 fold
- MDC fold increase ([8]; stimulus alone, 100 ng/ml): 2 fold
- MIP-1-δ fold increase ([8]; stimulus alone, 100 ng/ml): 1 fold
- RANTES fold increase ([8]; stimulus alone, 100 ng/ml): 1 fold
- SCF fold increase ([8]; stimulus alone, 100 ng/ml): 1 fold
- SDF-1 fold increase ([8]; stimulus alone, 100 ng/ml): 1 fold
- TARC fold increase ([8]; stimulus alone, 100 ng/ml): 1 fold
- TGF-β1 fold increase ([8]; stimulus alone, 100 ng/ml): 1 fold
- TNF-α fold increase ([8]; stimulus alone, 100 ng/ml): 1 fold
